Measurements taken from patent US20040235792A1, “Serine protease inhibitors compromising a hydrogen-bond acceptor” (priority 2001, published 2004).
Where a SMILES comes first, the peptide text is derived from it. [ ]: non-standard residue; d: D form. dPip = O=C(O)[C@H]1CCCCN1

What was measured:
FIXa = biological target: T1, FIXa (Homo sapiens, UniProt P00740); test: Score assay, FIXa (chromogenic substrate Pefachrome IXa); format: biochemical; parameters: key: fold increase in inhibitor conc / inhibitor conc used (mM); settings: Score = fold increase in inhibitor concentration / concentration of inhibitor used (in mM), 37° C., pH 7.4
T1 construct: FIXa was obtained from Haematologics; purchased Haematologics
T1 sequence (P00740 227-461 limits assumed): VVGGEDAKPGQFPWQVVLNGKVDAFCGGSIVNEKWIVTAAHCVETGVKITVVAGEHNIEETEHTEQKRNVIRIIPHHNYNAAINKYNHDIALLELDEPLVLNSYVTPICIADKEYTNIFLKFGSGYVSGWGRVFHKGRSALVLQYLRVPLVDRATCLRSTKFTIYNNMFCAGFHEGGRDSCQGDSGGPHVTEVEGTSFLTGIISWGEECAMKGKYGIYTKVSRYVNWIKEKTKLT
T1 sequence (P00740 47-191 partner limits assumed): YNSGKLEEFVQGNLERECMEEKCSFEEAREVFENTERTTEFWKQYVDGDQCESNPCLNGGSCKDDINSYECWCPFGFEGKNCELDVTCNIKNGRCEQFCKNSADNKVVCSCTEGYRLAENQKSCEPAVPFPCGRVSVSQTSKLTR
Description: (§1) Score gives a facile measure of the effectiveness of an inhibitor requiring only one or two data points, rather than the twelve or more data points required to calculate an IC50.
(§2) The principle behind calculating the score is that, although the absolute values obtained from inhibitors of the same type may be different, the shape and range of the IC50 curves are quite similar.
(§3) Molecular Devices Corp. Thermomax plate reader.
Pefachrome IXa (Kordia, for FIXa)
(§4) Buffer for FIXa assay: 50 mM Tris; 100 mM sodium chloride; 0.5% PEG 6000, pH 7.4. The aqueous buffer was freshly mixed each day with ethylene glycol (65%:35% respectively) Human α-thrombin was obtained from J. Freysinnet (Strasbourg).
FIXa was obtained from Haematologics.
FIXa (50 μl of a stock at 0.01 mg/ml) is added.
(§5) The data from IC50 curves for 13 compounds were used to construct an average IC50 curve.
(§6) The average values for the fold increase at each 10% step are shown below:
(§7) Measurement of single concentrations of inhibitor on a plate reader (using MDC ‘Softmax’ software) gave a value from 9 to 0 when compared to a control without inhibitor which corresponds to the % inhibition a shown in Table 1. Provided that the plate reader number was >2 but <8 (linear part of the graph) the score could then be calculated as follows.
(§8) Score=fold increase in inhibitor concentration (see table 1)/concentration of inhibitor used (in mM)

Human α-thrombin = biological target: T2, Human α-thrombin (Homo sapiens, UniProt P00734); test: Score assay, Thr (chromogenic substrate S-2238); format: biochemical; settings: Score = fold increase in inhibitor concentration / concentration of inhibitor used (in mM), 37° C., pH 7.4
T2 construct: Human α-thrombin was obtained from J. Freysinnet (Strasbourg); purchased J. Freysinnet (Strasbourg)
Text: as §1, §2, §3
S-2238 (H-D-Phe-Pip-Arg-pNA, for Thr) was obtained from Quadratech.
(§9) Buffer for Thr, Try, Pla, UK or Xa assay: 0.1M sodium phosphate; 0.2M sodium chloride; 0.5% PEG6000; 0.02% sodium azide, pH 7.4.
as §4
Inhibitor (100 μl of dilution in buffer of 1/20 or higher as appropriate from stock in DMSO) is added to substrate (50 μl of a dilution of 1/100 of 2.4 mg/ml stock) for 2 minutes at 37° C. Thr (50 μl of a dilution of {fraction (1/10,000)} of stock at 1 mg/ml) is added.
as §5, §6, §7, §8

protein Ca = protein Ca (Homo sapiens, UniProt P04070); settings: read-out: IC50 (protein Ca system); cited from earlier work
Sequence of protein Ca (P04070 212-461 limits assumed): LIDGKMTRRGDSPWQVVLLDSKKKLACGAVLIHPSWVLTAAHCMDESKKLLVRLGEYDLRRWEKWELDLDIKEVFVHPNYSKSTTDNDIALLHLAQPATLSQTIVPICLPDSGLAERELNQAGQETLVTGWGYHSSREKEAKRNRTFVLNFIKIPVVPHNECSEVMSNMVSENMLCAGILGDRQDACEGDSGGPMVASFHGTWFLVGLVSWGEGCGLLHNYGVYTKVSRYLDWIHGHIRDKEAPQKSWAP
Sequence of protein Ca (P04070 43-197 partner limits assumed): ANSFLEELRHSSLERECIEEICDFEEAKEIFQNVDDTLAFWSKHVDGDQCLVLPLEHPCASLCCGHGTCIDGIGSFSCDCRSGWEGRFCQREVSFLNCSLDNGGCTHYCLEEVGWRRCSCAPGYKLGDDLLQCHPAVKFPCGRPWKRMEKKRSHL

Try (trypsin) = Try (trypsin) (Homo sapiens, UniProt P07477); test: Score assay, Try (chromogenic substrate S-2288); format: biochemical; parameters: key: score = fold increase in inhibitor conc / inhibitor conc used (mM); settings: Table 3, substrate 25 μM
Text: as §1, §2, §3
S-2288 (H-D-Ileu-Pro-Arg-pNa for Try) was obtained from Quadratech.
as §9
(§10) Final Substrates Concentrations were 25 μM, 113 μM, 22 μM and 125 μM for Try, Pla, Xa and UK Respectively.
as §5, §6, §7, §8

Xa (factor X activated) = Xa (factor X activated) (Homo sapiens, UniProt P00742); test: Score assay, Xa (chromogenic substrate S-2765); format: biochemical; parameters: key: score = fold increase in inhibitor conc / inhibitor conc used (mM); settings: Table 3, substrate 22 μM
Sequence of Xa (factor X activated) (P00742 235-488 limits assumed): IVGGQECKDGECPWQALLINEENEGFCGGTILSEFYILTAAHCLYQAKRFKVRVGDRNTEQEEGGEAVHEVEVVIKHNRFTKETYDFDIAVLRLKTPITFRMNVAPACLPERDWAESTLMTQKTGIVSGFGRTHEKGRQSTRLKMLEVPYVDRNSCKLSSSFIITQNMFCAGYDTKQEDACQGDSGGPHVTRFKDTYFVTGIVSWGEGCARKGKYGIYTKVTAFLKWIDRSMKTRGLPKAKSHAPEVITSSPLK
Sequence of Xa (factor X activated) (P00742 41-179 partner limits assumed): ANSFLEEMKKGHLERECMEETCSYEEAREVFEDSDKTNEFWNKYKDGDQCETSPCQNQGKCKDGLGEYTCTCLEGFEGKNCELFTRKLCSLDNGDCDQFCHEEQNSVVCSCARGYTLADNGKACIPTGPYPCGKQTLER
Text: as §1, §2, §3
S-2765 (N-α-Z-D-ArgGly-Arg-pNa for Xa) was obtained from Quadratech.
as §9, §10, §5, §6, §7, §8

Pla (plasmin) = Pla (plasmin) (Homo sapiens, UniProt P00747); test: Score assay, Pla (chromogenic substrate S-2251); format: biochemical; settings: Table 3, substrate 113 μM
Sequence of Pla (plasmin) (P00747 581-810 limits assumed, species assumed): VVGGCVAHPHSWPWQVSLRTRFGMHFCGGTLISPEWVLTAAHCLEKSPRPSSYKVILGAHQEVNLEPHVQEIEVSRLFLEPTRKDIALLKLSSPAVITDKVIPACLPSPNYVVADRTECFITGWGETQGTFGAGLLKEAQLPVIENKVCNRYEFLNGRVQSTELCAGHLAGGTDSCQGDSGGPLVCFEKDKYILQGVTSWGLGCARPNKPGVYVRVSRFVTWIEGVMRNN
Sequence of Pla (plasmin) (P00747 97-580 partner limits assumed, species assumed): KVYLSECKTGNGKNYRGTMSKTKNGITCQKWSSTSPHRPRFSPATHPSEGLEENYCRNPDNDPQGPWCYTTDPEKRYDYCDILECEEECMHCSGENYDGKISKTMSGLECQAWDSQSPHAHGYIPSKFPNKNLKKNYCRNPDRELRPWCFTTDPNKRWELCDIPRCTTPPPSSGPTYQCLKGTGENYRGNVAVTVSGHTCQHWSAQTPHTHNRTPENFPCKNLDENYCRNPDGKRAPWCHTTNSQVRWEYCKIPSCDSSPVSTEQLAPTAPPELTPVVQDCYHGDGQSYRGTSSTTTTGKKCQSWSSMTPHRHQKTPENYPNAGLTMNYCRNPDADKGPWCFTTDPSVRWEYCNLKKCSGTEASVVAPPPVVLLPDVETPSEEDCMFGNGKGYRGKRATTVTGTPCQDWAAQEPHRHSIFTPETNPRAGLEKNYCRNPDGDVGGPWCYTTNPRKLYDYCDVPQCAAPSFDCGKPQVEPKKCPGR
Text: as §1, §2, §3
S-2251 (H-D-Val-Leu-Lys-pNa for Pla) was obtained from Quadratech.
as §9, §10, §5, §6, §7, §8

UK (urokinase) = UK (urokinase) (Homo sapiens, UniProt P00749); test: Score assay, UK (chromogenic substrate S-2444); format: biochemical; parameters: key: score = fold increase in inhibitor conc / inhibitor conc used (mM); settings: Table 3, substrate 125 μM
Text: as §1, §2, §3
S-2444 (pyro-Glu-Gly-Arg-pNa for UK) was obtained from Quadratech.
as §9, §10, §5, §6, §7, §8

thrombin = thrombin (Homo sapiens, UniProt P00734); settings: cited from earlier work
[1] = Table 1 comparators, single concentration, higher = more effective
[2] = Table 1 comparators, single concentration

In the case of `CC(C)(C)OC(=O)N=C(N)N(Cc1cccc(B2OC(C)(C)C(C)(C)O2)c1)C(=O)OC(C)(C)C` [compound 970], the FIXa score (FIXa; Table 3) is reported as 80 and the “Thr Score” value (Human α-thrombin; Table 3) is reported as 12.
In the case of `CC(=O)NC(Cc1ccccc1)C(=O)N1CCCC1C(=O)NC(CCCNC(=N)N)B(O)O` [DuP 714, Ac-D-Phe-Pro-boro Arg-OH], the IC50 (protein Ca) is given as 750 nM.
For `Br.CC(C)c1ccc(NC(=N)NC(=N)N)c(Br)c1` [compound 931], the FIXa score (FIXa; [1]) was 0.8 and the “Thr Score” value (Human α-thrombin; [2]) was 7.7.
For `N=C(N)SCc1cccc([N+](=O)[O-])c1` [compound 896], the FIXa score (FIXa; Table 3) was 2, the “Thr Score” value (Human α-thrombin; Table 3) was 295 and the “Try (score)” value (Try (trypsin)) was 4. The “Xa (score)” value (Xa (factor X activated)) was 4, the “Pla (score)” value (Pla (plasmin)) was 2 and the “UK (score)” value (UK (urokinase)) was 3.
In the case of `N=C(N)NCCC[C@@H](C=O)NC(=O)[C@@H]1CCCN1C(=O)[C@H]1CCCCN1` [D-hPro-Pro-Arg-H] (H-[dPip]-Pro-Arg-aldehyde), the KassThr (thrombin) is listed as 2e+06 L/mol.
In the case of `Br.COC(=O)c1cccc(CSC(=N)N)c1` [compound 887], the FIXa score (FIXa; [1]) is reported as 0.9 and the “Thr Score” value (Human α-thrombin; [2]) is reported as 5.3.
With `CC1(C)OB(c2ccc(Oc3ccccc3)c(CSC(=N)N)c2)OC1(C)C` [compound 1055] the FIXa score (FIXa; Table 3) was 291 and the “Thr Score” value (Human α-thrombin; Table 3) was 2768.
For `Cc1cc(CSC(=N)N)cc(B(O)O)c1` [compound 967], the FIXa score (FIXa; Table 3) was 205, the “Thr Score” value (Human α-thrombin; Table 3) was 1645 and the “Try (score)” value (Try (trypsin)) was 3. For the same compound, the “Xa (score)” value (Xa (factor X activated)) was 905, the “Pla (score)” value (Pla (plasmin)) was 312 and the “UK (score)” value (UK (urokinase)) was 785.
With `Br.N=C(N)SCc1cccc(I)c1` [compound 885] the FIXa score (FIXa; [1]) was 0.6 and the “Thr Score” value (Human α-thrombin; [2]) was 10.
For `N=C(N)SCc1ccccc1B(O)O` [compound 865], the FIXa score (FIXa; Table 3) was 5.4, the “Thr Score” value (Human α-thrombin; Table 3) was 70 and the “Try (score)” value (Try (trypsin)) was 7. For the same compound, the “Xa (score)” value (Xa (factor X activated)) was 7, the “Pla (score)” value (Pla (plasmin)) was 3 and the “UK (score)” value (UK (urokinase)) was 26.
For `CC1(C)OB(c2ccc(Oc3cccc(Cl)c3)c(CSC(=N)N)c2)OC1(C)C` [compound 1057], the FIXa score (FIXa; Table 3) was 157 and the “Thr Score” value (Human α-thrombin; Table 3) was 572.
For `CC(SC(=N)N)c1cccc(B2OC(C)(C)C(C)(C)O2)c1` (stereo not drawn) [compound 974], the FIXa score (FIXa; Table 3) was 64, the “Thr Score” value (Human α-thrombin; Table 3) was 6769 and the “Try (score)” value (Try (trypsin)) was 324. The “Xa (score)” value (Xa (factor X activated)) was 680, the “Pla (score)” value (Pla (plasmin)) was 324 and the “UK (score)” value (UK (urokinase)) was 934.
For `CN=C(N)SCc1cccc(B(O)O)c1` [compound 903], the FIXa score (FIXa; Table 3) was 19, the “Thr Score” value (Human α-thrombin; Table 3) was 38.7 and the “Try (score)” value (Try (trypsin)) was 21. For the same compound, the “Xa (score)” value (Xa (factor X activated)) was 39, the “Pla (score)” value (Pla (plasmin)) was 21 and the “UK (score)” value (UK (urokinase)) was 27.
In the case of `Br.N=C(N)NC(=N)Nc1ccc(I)cc1` [compound 932], the FIXa score (FIXa; [1]) is reported as 0.3 and the “Thr Score” value (Human α-thrombin; [2]) is reported as 0.
With `COc1ccc(CSC(=N)N)cc1B1OC(C)(C)C(C)(C)O1` [compound 973] the FIXa score (FIXa; Table 3) was 32, the “Thr Score” value (Human α-thrombin; Table 3) was 1210 and the “Try (score)” value (Try (trypsin)) was 167. The “Xa (score)” value (Xa (factor X activated)) was 167, the “Pla (score)” value (Pla (plasmin)) was 121 and the “UK (score)” value (UK (urokinase)) was 1210.
In the case of `N=C(N)SCc1cc(B(O)O)ccc1Oc1ccccc1` [compound 977], the FIXa score (FIXa; Table 3) is reported as 306, the “Thr Score” value (Human α-thrombin; Table 3) is reported as 333 and the “Try (score)” value (Try (trypsin)) is reported as 583. For the same compound, the “Xa (score)” value (Xa (factor X activated)) was 889, the “Pla (score)” value (Pla (plasmin)) was 583 and the “UK (score)” value (UK (urokinase)) was 583.
In the case of `CC1(C)OB(c2cccc(CNC(=N)N)c2)OC1(C)C` [compound 1006], the FIXa score (FIXa; Table 3) is reported as 46, the “Thr Score” value (Human α-thrombin; Table 3) is reported as 106 and the “Try (score)” value (Try (trypsin)) is reported as 37. For the same compound, the “Xa (score)” value (Xa (factor X activated)) was 51, the “Pla (score)” value (Pla (plasmin)) was 27 and the “UK (score)” value (UK (urokinase)) was 70.
With `CC(C)Cc1ccc(Oc2ccc(B3OC(C)(C)C(C)(C)O3)cc2CSC(=N)N)cc1` [compound 1059] the FIXa score (FIXa; Table 3) was 285 and the “Thr Score” value (Human α-thrombin; Table 3) was 1959.
